Measurements as given in patent US20070117182A1, “Nucleic acids conferring transcriptional responsiveness on the RANKL gene promoter and uses thereof” (Wisconsin Alumni Research Foundation, priority 2005, published 2007).

What was measured:
Format in all cases: cell-based, mouse
RANKL = experiment: RT-PCR of RANKL transcripts in treated ST2 cells; conditions: treated up to 24 hours, agent alone, vs beta-actin controls
Procedure: FIG. 2. Induction of RANKL in ST2 cells by hormones and cytokines. ST2 cells were treated with the agents indicated for periods up to 24 hours. Total RNA was isolated and subjected to RT-PCR using a primer set to mouse RANKL and beta-actin. Positive vitamin D target control genes include Cyp24 and osteopontin (OPN).
The inventors first established a model in which RANKL is both induced in response to 1,25(OH)2D3, PTH (forskolin) and oncostatin M (OSM), and is capable of supporting osteoclast formation when co-cultured with bone marrow monocyte- or spleen cell-derived osteoclast precursors. While a number of cell types express RANKL and induce osteoclastogenesis, the historical literature strongly supports mouse ST2 cells in this capacity, prompting the inventors to focus on this stromal/preosteoblastic line for initial studies. […] Each of these components is known to both induce RANKL expression and promote osteoclast formation as well. […] Indeed, GC effects are widely observed. […] The ability of GCs to enhance osteoclast formation in coculture assays in the presence of 1,25(OH)2D3, however, is likely due also to its coordinate ability to suppress OPG.

[1] = test system: D5 region of the RANKL gene (RL-CCL); experiment: pTK-RL(D5) luciferase reporter in ST2 cells; conditions: 24 hours; for luciferase activity via D5 (RL-CCL), TK promoter: agent alone
Procedure: FIG. 6. Transcriptional activity of the D5 regions of the RANKL gene in the context of the TK promoter. Sequence surrounding the D5 region (1072 bp) was cloned into the pTK-luciferase vector and termed pTK-RL(D5). […] Cells were harvested after 24 hours and luciferase activity assessed. B) ST2 cells were transfected as in A above but without the VDR expression vector and evaluated as in A. C) COS-7 cells were transfected and evaluated as in A above. Luciferase was normalized using beta-gal activity. Data represent the mean of triplicate determinations (SEM). The pTK-luc control vector was unresponsive to any of the inducers (see FIG. 9). *, p<0.05 vs no treatment control.
FIG. 11. […] A) Coordinates of the RL-D5 and the RL-D5b regions in the mouse RANKL upstream region. ST2 cells were transfected with either B) pTK-luc or pTK-mRL-D5 or C) pTK-luc and pTK-mRL-D5b and then treated with the indicated inducers. Cells were harvested after 24 hours and evaluated for luciferase activity. Luciferase was normalized using β-gal activity. Data represent the mean of triplicate determinations (SEM). *, p<0.05 vs no treatment control. **, p<0.05 vs no treatment and 1,25(OH)2D3 treated controls.
The activity of an enhancer must be evaluated in the context of its local environment, preferentially in the context of both other enhancers and its native promoter. In the case of the RANKL gene, however, this is clearly not possible due to the numbers and the distant locations of the potential regulatory regions. To tackle this problem, the inventors isolated approximately 800 to 1100 bp fragments of each region (D1 to D5) as identified through the ChIP/Chip analysis, cloned each into a luciferase expression vector under the control of a viral thymidine kinase (TK) minimal promoter, and explored the 1,25(OH)2D3- and GC-inducible activity of each following transfection into ST2 cells. […] Nevertheless, positive results provide added support for the potential regulatory capabilities of an individual DNA fragment even when examined in isolation. […] This induction was magnified by the addition of a VDR expression vector (FIG. 6a), but was also evident in the absence of such addition (FIG. 6b). […] To ensure that the viral TK promoter background was not contributing to our evaluation, the inventors cloned the mouse RANKL promoter (−100 to +65) into pGL3, inserted RL D5 and evaluated its activity in ST2 cells as well.
Based upon the above data, the inventors explored the possibility that similar to 1,25(OH)2D3, forskolin, PGE2 and OSM might be capable of activating transcription via the D5 fragment of the RANKL gene. […] Cells were harvested 24 hours later and evaluated for luciferase activity as in the previous experiments. […]

[2] = test system: RANKL gene upstream regions D1-D5; experiment: ChIP analysis of transcription factor binding to the RANKL gene in ST2 cells; conditions: 6 hours
Procedure: FIG. 4. Confirmation of ChIP/chip data using ChIP. A) Linear arrangement of RANKL locus re-oriented 5′ to 3′ (left to right) indicating the positions of D5 to D1, P2, and P1/TSS. Designation of primer sets used for detection in ChIP is indicated. B) ST2 cells were treated with either vehicle or 1,25(OH)2D3 and then subjected to ChIP using antibodies to VDR, RXR or IgG. Precipitated DNA was evaluated using the primer sets identified in A.
FIG. 5. […] ST2 cells were treated with the above hormones and after 6 hours subjected to ChIP analysis using antibodies to VDR, RXR, GR, C/EBP, β, RNA pol II, and IgG. Precipitated DNA was evaluated for enrichment of the indicated regions of the RANKL gene.
FIG. 10. ChIP analysis of transcription factor binding to RL D5, the TSS and intervening regions of the RANKL locus in response to 1,25(OH)2D3, forskolin and oncostatin M (OSM). ST2 cells were treated for 6 hr with the indicated inducing agents and then subjected to ChIP analysis using antibodies to the indicated factors. Precipitated DNA was analyzed by PCR for enrichment of IS7, D5, IS6 and the TSS of the RANKL gene locus. See text for details of results.
The isolated DNA was then evaluated by PCR using primers as depicted in the diagram seen in FIG. 4a which were designed to amplify small DNA segments within the 5 regions as well as segments located at intervening sites (IS) outside the five regions.
The inventors hypothesized that GC's might perhaps enhance VDR binding to RANKL regulatory regions. […] The inventors focused on the RL-CCL region (D5) and amplified the precipitated DNA using primers to this region of the gene as well as to D4, D3 and TSS and intervening regions. […] The inventors also explored the possibility that C/EBPbeta might similarly participate in the RANKL activation process. C/EBPbeta plays a significant role in the regulation of osteoblastic genes, and is found associated with both 1,25(OH)2D3 and GC target genes.
In addition to 1,25(OH)2D3 and GCs, RANKL expression is also known to be modulated by such factors as PTH, PGE2, the gp130-activating cytokines IL-6 and OSM, as well as IL-1beta and TNFalpha. […] Forskolin was used as substitute for PTH, however, as ST2 cells are deficient in PTH receptor (PTHR). Both PTH/forskolin and PGE2 are known to induce RANKL gene expression via CREB whereas OSM functions via Stat3. […] The inventors therefore explored the possibility that the RL-CCL might represent a focal target for these inducers via either CREB or Stat3 in the RANKL gene locus. ST2 cells were treated with either vehicle, 1,25(OH)2D3, forskolin or OSM for a 6 hour period and then subjected to a ChIP analysis using antibodies to VDR, C/EBPbeta, CREB, phospho-CREB, ATF-2, ATF-4, Stat3, RNA pol II and control IgG. Isolated DNA was then subjected to amplification using primers corresponding to the D5 region (RL-CCL) of the RANKL gene. As controls, the inventors also assessed the extent to which the immunoprecipitations led to the enrichment of DNA at sites surrounding the D5 region of the RANKL gene.

Compound	RANKL transcripts (RANKL)	luciferase activity via D5 (RL-CCL), TK promoter [1]	CREB binding to the D5 region [2]	Stat3 binding to the D5 region [2]	VDR binding to RANKL regulatory regions (D5) ([2]; agent alone)	increase in transcriptional output via mRL-D5 ([1]; OSM 20 ng/ml) [fold]
CCCCC[C@H](O)/C=C/[C@H]1[C@H](O)CC(=O)[C@@H]1C/C=C\CCCC(=O)O [PGE2]	substantial time-dependent increase	not forskolin or PGE2	–	–	–	–
TNFalpha	substantial time-dependent increase	–	–	–	–	–
oncostatin M [OSM]	substantial time-dependent increase	responsive	modestly increased CREB association	induces significant binding of Stat3	no effect on VDR binding	3
IL-1beta: cytokine known to induce RANKL expression	substantial time-dependent increase	–	–	–	–	–
